Assay results as given in US20240033234A1, “THERAPEUTIC COMPOUNDS, FORMULATIONS, AND USE THEREOF” (Tvardi Therapeutics, Inc., priority 2022, published 2024).
Values joined by “and” are separate entries in the source; they are usually repeats but may differ in a detail not shown here. Identical values can stand only once.

Assay: Accelerated and long term stability study of TTI-101 (Batch A, Batch B): HPLC assay, purity, impurities and water content after storage at 5° C., 25° C./60% RH, 30° C./65% RH or 40° C./75% RH
Format: physicochemical
Settings: for Impurities RRT 1.06: RRT of Compound 4
Experimental: Exemplary HPLC conditions: diluent was 0.1% trifluoroacetic acid (TFA) in acetonitrile, Mobile Phase A was 0.05% TFA in water, and Mobile Phase B was 0.05% TFA in acetonitrile, column (Agilent, Eclipse XDB-C18, 3.0×100 mm, particle size 1.8 μm), flow (0.425 mL/min), and detector (280 nm diode array).
Batch A was prepared analogously using Method 3 as described in Example 1. Batch B was prepared according to Method 5 as described in Example 1.
Samples of TTI-101 were stored at 5° C., 25° C./60% RH, 30° C./65% RH, or 40° C./75% RH. TTI-101 was stored in an LDPE bag enclosed with a Nylon cable tie and then transferred to another LDPE bag and enclosed with a Nylon cable tie. The enclosure was put into an HDPE bottle and closed with a polyethylene-lined polypropylene cap. The samples were stored under the above-identified conditions.
The samples were analyzed using HPLC with the exemplary conditions identified above. Relative retention time (RRT) for Compound 5 was about 0.83, Compound 4 was about 1.05-1.06, Compound 6 was about 1.15-1.17, and compound of formula (IV) was about 0.99.
• NA not applicable • NQ ≥0.02% and <0.05% • Avg average • Cmpd compound • — no peak • M month • RRT relative retention time

[1] = 25° C./60% RH, 6 M, P1/P2, listed as Batch A
[2] = 25° C./60% RH, 9 M, P1/P2, listed as Batch A
[3] = 25° C./60% RH, 12 M, P1/P2, listed as Batch A

COc1ccc(S(=O)(=O)Nc2cc(-c3c(O)ccc4ccccc34)c(O)c3ccccc23)cc1 [TTI-101]
Purity (%) (25° C./60% RH, 3 M, P1/P2): 99.7%
Water Content (%) (25° C./60% RH, 3 M, P1/P2): <0.04%
Assay (%) (25° C./60% RH, 3 M, P1/P2, listed as Batch A): 99.0% and 100.0%
Assay (%) (25° C./60% RH, 6 M, Avg): 98.2%
Impurities RRT 1.15 (Cmpd 6) (25° C./60% RH, 6 M, Avg): 0.11 area %
Impurities Total (25° C./60% RH, 6 M, Avg): 0.1 area %
Purity (%) (25° C./60% RH, 6 M, Avg): 99.9%
Water Content (%) (25° C./60% RH, 6 M, Avg): <0.04%
Impurities Total (25° C./60% RH, 6 M, P1/P2): 0.1 area %
Purity (%) (25° C./60% RH, 6 M, P1/P2): 99.9%
Water Content (%) (25° C./60% RH, 6 M, P1/P2): <0.04%
Assay (%) [1]: 97.0% and 99.5%
Impurities RRT 1.15 (Cmpd 6) [1]: 0.11 area % and 0.12 area %
Assay (%) (25° C./60% RH, 9 M, Avg): 98.4%
Impurities RRT 1.16 (Cmpd 6) (25° C./60% RH, 9 M, Avg): 0.10 area %
Impurities Total (25° C./60% RH, 9 M, Avg): 0.1 area %
Purity (%) (25° C./60% RH, 9 M, Avg): 99.9%
Water Content (%) (25° C./60% RH, 9 M, Avg): <0.04%
Impurities Total (25° C./60% RH, 9 M, P1/P2): 0.1 area %
Purity (%) (25° C./60% RH, 9 M, P1/P2): 99.9%
Water Content (%) (25° C./60% RH, 9 M, P1/P2): <0.04%
Assay (%) [2]: 99.7% and 97.0%
Impurities RRT 1.16 (Cmpd 6) [2]: 0.11 area % and 0.10 area %
Assay (%) (25° C./60% RH, 12 M, Avg): 98.5%
Impurities RRT 1.06 (Cmpd 4) (25° C./60% RH, 12 M, Avg): NQ (≥0.02% and <0.05%)
Impurities RRT 1.16 (Cmpd 6) (25° C./60% RH, 12 M, Avg): 0.39 area %
Impurities RRT 1.52 (25° C./60% RH, 12 M, Avg): NQ (≥0.02% and <0.05%)
Impurities Total (25° C./60% RH, 12 M, Avg): 0.4 area %
Purity (%) (25° C./60% RH, 12 M, Avg): 99.6%
Water Content (%) (25° C./60% RH, 12 M, Avg): 0.04%
Impurities RRT 1.06 (Cmpd 4) (25° C./60% RH, 12 M, P1/P2): NQ (≥0.02% and <0.05%)
Impurities RRT 1.16 (Cmpd 6) (25° C./60% RH, 12 M, P1/P2): 0.39 area %
Impurities Total (25° C./60% RH, 12 M, P1/P2): 0.4 area %
Purity (%) (25° C./60% RH, 12 M, P1/P2): 99.6%
Assay (%) [3]: 98.3% and 98.6%
Water Content (%) [3]: <0.04% and 0.04%
Assay (%) (25° C./60% RH, 18 M, Avg): 98.2%
Impurities RRT 1.15 (Cmpd 6) (25° C./60% RH, 18 M, Avg): 0.10 area %
Impurities Total (25° C./60% RH, 18 M, Avg): 0.1 area %
Purity (%) (25° C./60% RH, 18 M, Avg): 99.9%
Water Content (%) (25° C./60% RH, 18 M, Avg): <0.04%
Impurities RRT 1.15 (Cmpd 6) (25° C./60% RH, 18 M, P1/P2): 0.10 area %
Impurities Total (25° C./60% RH, 18 M, P1/P2): 0.1 area %
Purity (%) (25° C./60% RH, 18 M, P1/P2): 99.9%
Water Content (%) (25° C./60% RH, 18 M, P1/P2): <0.04%
Impurities RRT 1.06 (25° C./60% RH, 18 M, P1/P2): NQ (≥0.02% and <0.05%)
Assay (%) (25° C./60% RH, 18 M, P1/P2, listed as Batch A): 98.3% and 98.2%
Assay (%) (25° C./60% RH, 24 M, Avg): 99.3%
Impurities RRT 1.16 (Cmpd 6) (25° C./60% RH, 24 M, Avg): 0.12 area %
Impurities Total (25° C./60% RH, 24 M, Avg): 0.1 area %
Purity (%) (25° C./60% RH, 24 M, Avg): 99.9%
Water Content (%) (25° C./60% RH, 24 M, Avg): <0.04%
Impurities RRT 1.16 (Cmpd 6) (25° C./60% RH, 24 M, P1/P2): 0.12 area %
Impurities Total (25° C./60% RH, 24 M, P1/P2): 0.1 area %
Purity (%) (25° C./60% RH, 24 M, P1/P2): 99.9%
Water Content (%) (25° C./60% RH, 24 M, P1/P2): <0.04%
Impurities RRT 1.06 (25° C./60% RH, 24 M, P1/P2): NQ (≥0.02% and <0.05%)
Assay (%) (25° C./60% RH, 24 M, P1/P2, listed as Batch A): 99.1% and 99.6%
Assay (%) (40° C./75% RH, 0 M, Avg): 99.8%
Impurities RRT 1.06 (Cmpd 4) (40° C./75% RH, 0 M, Avg): NQ (≥0.02% and <0.05%)
Impurities RRT 1.17 (Cmpd 6) (40° C./75% RH, 0 M, Avg): 0.13 area %
Impurities RRT 1.32 (40° C./75% RH, 0 M, Avg): NQ (≥0.02% and <0.05%)
